Reference: US20120289492A1, “METHODS OF TREATING MITOCHONDRIAL DISORDERS USING METALLOPORPHYRINS” (priority 2009, published 2012)
Entries after “also recorded” stand apart in the source; their conditions may differ.

Tests used:
[1] = test system: kainate-induced epileptogenesis in rats; experiment: Kainate-induced chronic epilepsy development (rat model of temporal lobe epilepsy); format: in vivo
Experimental: The rat model of temporal lobe epilepsy is initiated by a single injection of a chemoconvulasant agent which results in spontaneous epileptic seizure arise several days to weeks thereafter. Groups of rats administered vehicle, kainate (a chemoconvulsant used to initiate injury), kainate+AEOL11207 and AEOL11207 were monitored 6 weeks for behavioral seizures and indices of oxidative stress (GSH/GSSG, CoASH/CoASSG). AEOL11207 was administered at an arbitrary dose of 5 mg/kg, s.c. daily beginning 6 hr after injection of kainate (11 mg/kg). All of the rats in both groups experienced SE after kainate injection, and there was no difference in any of the characteristics of SE between the groups. […] The time to develop chronic epilepsy (latency to chronic epilepsy), spontaneous seizure frequency, severity and duration was determined.
In another exemplary experiment, pharmacological removal of ROS was examined for its inhibition on kainate-induced epileptogenesis. A pilot was performed in which groups of rats administered vehicle (n=4), kainate (n=6), kainate+AEOL11207(n=6) and AEOL11207 (n=4) were monitored 6 weeks for behavioral seizures (Table 1) and indices of oxidative stress (GSH/GSSG, CoASH/CoASSG) (FIG. 6).
AEOL11207 was administered at a dose of 5 mg/kg, s.c. daily beginning 6 hr after injection of kainate ([…]). All of the rats in both groups experienced SE after kainate injection, and there was no difference in any of the characteristics of SE between the groups. […] The time to develop chronic epilepsy (latency to chronic epilepsy), spontaneous seizure frequency, severity and duration was determined as previously described. […] None of the rats in the control or AEOL11207 alone groups developed seizures. […] FIG. 6 and Table 1 illustrate the effect of AEOL11207 on kainate-induced chronic epilepsy development (n=6/group) and oxidative stress (n=4-6 per group).

[2] = mouse, in vivo, po, 15 mg/kg
Experimental: In another exemplary method, oral administration of AEOL11207 was examined for efficiently to penetrate the blood-brain barrier (BBB) and brain mitochondria. To determine if AEOL11207 penetrates the BBB, preliminary studies were conducted in mice following injection of AEOL 11207. Mice were given a single dose of the compound (15 mg/kg, p.o. AEOL 11207) or vehicle (control). At various times after injection, mice were perfused and brains (cortex) and plasma were extracted with methanol and samples analyzed by an HPLC method as described previously. […] FIGS. 3A and 3B illustrate plasma and brain concentrations of AEOL11207 following s.c. or p.o. administration. […]
FIGS. 3A-3B illustrate exemplary concentrations of AEOL11207 in the plasma (3A) and brains (3B) of the C57BL/6 mice at different times points after a single dose of AEOL11207 (15 mg/kg) administered by the s.c or p.o. route. […] FIG. 3C illustrates an exemplary chromatogram of AEOL 11207 levels measured by HPLC with UV detection at 450 nm in mitochondrial fractions of mouse forebrain 24 hr after AEOL11207 15 mg/kg s.c. as previously described. Recovery of AEOL11207 from mitochondrial samples was determined to be ˜98%. […]
Determination of metalloporphyrin levels AEOL11207 was measured by HPLC-UV following previously described methods (Liang, et al. (2007) J Neurosci 27, 4326-33).

[3] = test system: paraquat (PQ2+)-induced cell injury; experiment: Paraquat (PQ2+)-induced cell injury assay; format: cell-based; details: data not shown
[4] = Scavenging of reactive oxygen species in cell-free systems and isolated mitochondria; format: biochemical
Wild-type mice = experiment: Tolerability in wild-type mice; format: in vivo; details: 5 mg/kg daily, up to 20 days of treatment
B6D2F2 Sod2−/− mice = experiment: Behavioral seizure evaluation and survival of Sod2−/− mice
Description: The model utlizes cross-bred C57BL6XDBA2F2 (B6D2) mutant mice lacking manganese superoxide dismutase (MnSOD or Sod2), a critical mitochondrial antioxidant.
Chronic Video Monitoring and Seizure Scoring: Sod2−/− mice and wild type littermates aged P7-˜P21 are digitally recorded 8 hrs/day in a custom designed plexiglass cage using a Q-See QD14B video monitoring system connected to a recordable DVD. DVD recordings are saved and reviewed by a trained observer blind to genotype and/or treatment for scoring of seizure severity, duration, and frequency. Seizure severity will be rated using the following scale: 1=immobilization & staring, 2=head-nodding, occasional forelimb clonic and tonic activity, 3=continuous forelimb clonic and tonic activity, 4=generalized seizures with falling, running and jumping.
The mutant mice were monitored on a daily basis to get an accurate birth and death data. Pups were not culled or handled before P5 to avoid maternal rejection.
Metalloporphyrin (AEOL11207) administration B6D2F1 Sod2−/− mice and their wild-type littermates (control mice) were treated with AEOL11207 (5 mg/kg) or vehicle by subcutaneous (s.c.) injection daily starting at 5 days of age until death or being sacrificed. AEOL11207 was dissolved in dimethyl sulfoxide (DMSO) and diluted with sterilized phosphate buffered saline (PBS) to achieve the desired final concentration (1% DMSO). The control animals were injected with sterilized PBS containing 1% DMSO. The animals were divided into four different groups: 1) control mice +vehicle; 2) B6D2F1 Sod2−/− mice+vehicle; 3) control mice +AEOL11207; 4) B6D2F1 Sod2−/− mice +AEOL11207. The treated and untreated mice were sacrificed at 15-16 days old for pathology and biochemistry assays or until death for survival and seize behavioral evaluation.
During the weaning period (P15-P18) mice were recorded in the presence of their mothers, and individually thereafter. Video was digitally recorded (Panasonic DMR-ES 15) and stored on DVD-R′s for observation and quantification of seizure number, duration, frequency, and severity by an observer blind to treatments. Seizure severity was scored according to the following scale: 1=immobilization and staring, 2=head-nodding, shaking, 3=forelimb tonic/clonic activity, 4=continuous forelimb tonic/clonic activity with falling, running or jumping. Due to the presence of abnormal gait and posturing in Sod2^−/− mice, only spontaneous motor seizures with scores>3 were included for comparison between groups. The scoring and analysis was conducted by an investigator blinded to genotype and treatment.
Statistical analyses Survival analysis was performed using the Kaplan-Meier method. […] P values less than 0.05 were considered significant.

[5] = kainate rats, compared to controls
[6] = the 2 rats of the kainate+AEOL11207 group that developed epilepsy
[7] = Sod2−/− mice, 5 mg/kg s.c. daily from P5, vs vehicle, 5 mg/kg

Question: Which “rats that developed seizures” value ([1]; AEOL11207 alone group, no kainate) does the source give for COC(=O)c1c2nc(c(C(F)(F)F)c3ccc([n-]3)c(C(=O)OC)c3nc(c(C(F)(F)F)c4ccc1[n-]4)C=C3)C=C2.[Cl-].[Mn+3] [AEOL11207] here?
Answer: None

Question: What about the “rats that developed chronic epilepsy during 6 weeks” value ([1]; in comparison with two-thirds in the kainate group) of the same molecule?
Answer: one-third

Question: What about the “Duration of seizures (sec.)” value ([1]; kainate + 5 mg/kg s.c. daily, kainate alone 33.3 ± 1.9) of the same molecule?
Answer: 28.3 ± 2.2*p < 0.05 sec.

Question: And the CoASH/CoASSG ratio [1, 5]?
Answer: significantly improved

Question: And the GSH/GSSG ratio [1, 5]?
Answer: significantly improved

Question: What about the “decrease of seizure duration” value [1, 6] of the same molecule?
Answer: ~15%

Question: And the “number of seizures per animal” value [1, 6]?
Answer: no changes

Question: What about the “estimated concentration in the brain” value [2] of the same molecule?
Answer: within the protective range

Question: And the protective range [3]?
Answer: 30 to 100 nM

Question: What about the “scavenging of mitochondrial O2-, H2O2 and lipid peroxides” value [4] of the same molecule?
Answer: catalytically scavenges

Question: What about the ill effects (Wild-type mice) of the same molecule?
Answer: no ill effects

Question: And the mortality (Wild-type mice)?
Answer: no mortality

Question: And the “Sod2−/− mice surviving beyond 15 days old” value (B6D2F2 Sod2−/− mice; 5 mg/kg daily, vehicle ~48%)?
Answer: all

Question: And the “Sod2−/− mice exhibiting spontaneous tonic-clonic seizures” value (B6D2F2 Sod2−/− mice; P15-P20, daily observation, all vehicle-treated mice)?
Answer: 37%

Question: What about the “frequency of spontaneous behavioral seizures” value (B6D2F2 Sod2−/− mice; [7]) of the same molecule?
Answer: significantly decreased; also recorded: decrease; also recorded: significantly attenuates

Question: And the seizure severity (B6D2F2 Sod2−/− mice; [7])?
Answer: but not seizure duration or severity; also recorded: no significant changes

Question: What about the “total number of spontaneous behavioral seizures” value (B6D2F2 Sod2−/− mice; [7]) of the same molecule?
Answer: decrease; also recorded: significantly attenuates

Question: And the average lifespan (B6D2F2 Sod2−/− mice; Sod2−/− mice, 5 mg/kg s.c. daily starting at 5 days of age, 5 mg/kg)?
Answer: 20.33 ± 2.00 days

Question: What about the average lifespan (B6D2F2 Sod2−/− mice; Sod2−/− mice, 5 mg/kg s.c. daily starting at 5 days of age, listed as AEOL 11207, 5 mg/kg) of the same molecule?
Answer: 20.383 ± 0.43 days

Question: And the average lifespan (B6D2F2 Sod2−/− mice; Sod2−/− mice, daily treatment 2.5 mg/kg)?
Answer: no significant increase

Question: What about the “behavioral seizure characteristics / seizure parameters” value (B6D2F2 Sod2−/− mice; Sod2−/− mice, s.c. from postnatal day 5) of the same molecule?
Answer: attenuates; also recorded: significantly attenuated; also recorded: ameliorates
